# Assay results: patent publication US20250236639A1, “NEUROACTIVE STEROIDS AND COMPOSITIONS THEREOF” (Sage Therapeutics, Inc., priority 2019, published 2025)
# Target: GABAA receptor
# Experiment: Steroid inhibition of [35S]-TBPS binding, rat brain cortical membranes
# Details: 3 nM [35S]-TBPS, in the presence of 5 mM GABA
# In short: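 Rat cortical P2 membranes incubated 90 min at room temperature with 3 nM [35S]-TBPS, […] and test compound (0.5% DMSO final) in NaCl/Na–K phosphate pH 7.4; nonspecific binding with […]. Filter-bound radioactivity counted; IC50 and Imax from nonlinear fits, mean ± SEM.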
row,Compound,IC50
1,"COC[C@@]1(O)CC[C@H]2[C@H](CC[C@@H]3[C@@H]2CC[C@]2(C)[C@@H](C4(Cn5cc(C#N)cn5)COC4)CC[C@@H]32)C1 [Compound 40, 1-((3-((3R,5R,8R,9R,10S,13S,14S,17S)-3-hydroxy-3-(methoxymethyl)-13-methylhexadecahydro-1H-cyclopenta[a]phenanthren-17-yl)oxetan-3-yl)methyl)-1H-pyrazole-4-carbonitrile]",< 100 nM
2,"COC[C@@]1(O)CC[C@H]2[C@H](CC[C@@H]3[C@@H]2CC[C@]2(C)[C@@H](C(C)(Cn4cc(C#N)cn4)OC)CC[C@@H]32)C1 (stereo in doubt) [Compound 33, 1-[(2S)-2-[(1S,3aS,3bR,5aR,7R,9aS,9bR,11aS)-7-hydroxy-7-(methoxymethyl)-11a-methyl-hexadecahydro-1H-cyclopenta[a]phenanthren-1-yl]-2-methoxypropyl]-1H-pyrazole-4-carbonitrile]",100 to 1000 nM
3,"COC[C@@H]1C[C@H]2[C@H](CC[C@@H]3[C@@H]2CC[C@@]2(C)[C@H]3CC[C@@H]2[C@@](C)(O)Cn2cc(C#N)cn2)C[C@]1(C)O [Compound 59A, 1-((R)-2-hydroxy-2-((2S,3S,5R,8R,9R,10S,13S,14S,17S)-3-hydroxy-2-(methoxymethyl)-3,13-dimethylhexadecahydro-1H-cyclopenta[a]phenanthren-17-yl)propyl)-1H-pyrazole-4-carbonitrile]",100 to 1000 nM
4,"CCC[C@@]1(O)CC[C@@]2(CC)[C@H](CC[C@H]3[C@@H]4CC[C@H]([C@@](C)(O)Cn5cc(C#N)cn5)[C@@]4(C)CC[C@@H]32)C1 [Compound 45, 1-((R)-2-((3R,5R,8S,9S,10S,13S,14S,17S)-10-ethyl-3-hydroxy-13-methyl-3-propylhexadecahydro-1H-cyclopenta[a]phenanthren-17-yl)-2-hydroxypropyl)-1H-pyrazole-4-carbonitrile]",100 to 1000 nM
5,"C[C@@]1(O)CC[C@H]2[C@H](CC[C@@H]3[C@@H]2CC[C@@]2(C)[C@H]3CC[C@@H]2[C@](C)(C#N)Cn2cc(C#N)cn2)C1 [Compound 57, 1-((S)-2-cyano-2-((3R,5R,8R,9R,10S,13S,14S,17S)-3-hydroxy-3,13-dimethylhexadecahydro-1H-cyclopenta[a]phenanthren-17-yl)propyl)-1H-pyrazole-4-carbonitrile]",< 100 nM
6,"CCC[C@@]1(O)CC[C@H]2[C@H](CC[C@@H]3[C@@H]2CC[C@@]2(C)[C@H]3CC[C@@H]2[C@@](C)(O)Cn2cc(C#N)cn2)C1 [Compound 8, 1-((R)-2-hydroxy-2-((3R,5R,8R,9R,10S,13S,14S,17S)-3-hydroxy-13-methyl-3-propylhexadecahydro-1H-cyclopenta[a]phenanthren-17-yl)propyl)-1H-pyrazole-4-carbonitrile]",100 to 1000 nM
7,"COC[C@@]1(O)CC[C@H]2[C@H](CC[C@@H]3[C@@H]2CC[C@]2(C)[C@@H](C(C)(Cn4cc(C#N)cn4)OC)CC[C@@H]32)C1 (stereo in doubt) [Compound 32, 1-((R)-2-((3R,5R,8R,9R,10S,13S,14S,17S)-3-hydroxy-3-(methoxymethyl)-13-methylhexadecahydro-1H-cyclopenta[a]phenanthren-17-yl)-2-methoxypropyl)-1H-pyrazole-4-carbonitrile]",100 to 1000 nM
